# Data taken from patent US20260166029A1, “METHODS AND SYSTEMS FOR TREATING DISEASE USING AN ATR/CHK1 SIGNALING PATHWAY INHIBITOR” (Acrivon Therapeutics, Inc., priority 2022, published 2026).
# “And” between values parts separate entries of the source, which are not always exact repeats. Equal values may be shown once. Read-outs that look alike come from different tables or passages of the source.
# Assays:
# [1] = system: metastatic high-grade serous ovarian cancer; assay: Observed response in phase 2 clinical trials, patients with FFPE pre-treatment biopsies (Example 5); format: in vivo, human; parameters: key to RECIST response category: SD: stable disease;; PR: partial response;; PD: progressive disease;; settings: for RECIST Responder: RECIST response = PR or CR
# Excerpt: Biopsy samples from several independent clinical phase 2 studies were merged for this analysis based on availability. Study JTJN (NCT03414047) was a large multicenter, multi-country, non-randomized, parallel cohort, Phase 2 study of prexasertib in subjects with advanced stage, high grade serous ovarian, primary peritoneal, or fallopian tube cancer. Several single-center phase 2 studies sponsored by NCI of prexasertib in BRCA ½ wild-type or BRCA ½ mutant recurrent high-grade serous ovarian cancer (NCT02203513) provided additional FFPE samples; see Lee, Lancet Oncol. 19(2): 207-215 (2018). To evaluate whether a provided Response-Predictive Signature can successfully predict patient responders, sections of pre-treatment tumor biopsies were stained blinded to treatment outcome using antibodies against three biomarkers (biomarker 1 (BM1) Ser296 phosphorylated Chk1, biomarker 2 (BM2) Ser473 phosphorylated Kap1, and biomarker 3 (BM3) total cyclin E1) and imaged using immunofluorescence microscopy. The tumor samples were additionally stained using an antibody against cytokeratin in order to identify and distinguish tumor cells of interest from the surrounding stroma and stained with DAPI to identify cell nuclei.
# The Response-Predictive Signature was evaluated by comparing predicted response to prexasertib of each patient to observed response in the clinical trials (Table 8, FIG. 15). Observed clinical trial responses were provided separately to the third party biostatistician. They were classified according to RECIST criteria as complete response (CR), partial response (PR), stable disease (SD), or progressive disease (PD). Additionally, the observed treatment outcome was quantified based on the maximum fractional change in tumor volume after treatment (Table 8, FIG. 15). […] Clinical RECIST responder rate (PR or CR) among those predicted by the Response-Predictive Signature to be non-responders was 5%. Clinical RECIST responder rate (PR or CR) among those predicted by the Response-Predictive Signature to be responders was 58%. This 58% represented a substantial responder-enrichment over the overall unenriched response rate of 25%.
# SCLC = settings: cited from earlier work
# A2780 [2] = assay: Cell viability, sensitivity to prexasertib (Example 1); format: cell-based, human; settings: A2780 cell line
# Description: (§1) Predicted response to prexasertib was compared to experimentally measured sensitivity to prexasertib. […] EC50 values of less than or equal to 1 μM were considered to be actual responders, while values of greater than 1 μM were considered to be actual non-responders.
# Kuramochi = assay: as above; format: cell-based, human; settings: Kuramochi cell line
# Description: as §1
# U1752 = assay: as above; format: cell-based, human; settings: U1752 cell line
# Description: as §1
# MCF7 = assay: as above; format: cell-based, human; settings: MCF7 cell line
# Description: as §1
# T47D = assay: as above; format: cell-based, human; settings: T47D cell line
# Description: as §1
# CAOV3 = assay: as above; format: cell-based, human; settings: CAOV3 cell line
# Description: as §1
# DU145 = assay: as above; format: cell-based, human; settings: DU145 cell line
# Description: as §1
# U2020 = assay: as above; format: cell-based, human; settings: U2020 cell line
# Description: as §1
# A549 = assay: as above; format: cell-based, human; settings: A549 cell line
# Description: as §1
# PC3 = assay: as above; format: cell-based, human; settings: PC3 cell line
# Description: as §1
# PANC1 = PANC1 cell line; external data from prior publications; cited from earlier work
# Anal, SCC = settings: cited from earlier work
# A2780 [3] = assay: Cell Titer Glo 2.0 relative cell viability, 72 h (Example 10); format: cell-based; settings: Homo sapiens, A2780 cell line, read-out: Abs IC50
# Description: (§2) The present Example provides experimental evidence that cell lines predicted to be sensitive to a Chk1 inhibitor (e.g., prexasertib, are also sensitive to Wee1 inhibitors (e.g., adavosertib (AZD1775, MK1775) and azenosertib (Zn-C3)). Cell lines were treated with increasing doses of either prexasertib, adavosertib, or azenosertib, and relative cell viability against a DMSO control was assessed 72 h after drug treatment using Cell Titer Glo 2.0 (Promega) and a SpectraMax microplate reader. The results are shown in FIGS. 19A-19C. Error bars represent standard deviations from quadruplicate samples.
# HeLa = assay: as above; format: cell-based; settings: Homo sapiens, HeLa cell line, read-out: Abs IC50
# Description: as §2
# A375 = assay: as above; format: cell-based; settings: Homo sapiens, A-375, A375 cell line, read-out: Abs IC50
# Description: as §2
# Ovarian, primary HGS = settings: trial 2, 46 multi-center, 8-country study; cited from earlier work
# Ovarian, metastases = settings: cited from earlier work
# [4] = individual patients predicted non-responder (NR)
# [5] = individual patients predicted responder (R)
# [6] = based on measured sensitivity (EC50)
# [7] = Homo sapiens, reduction in cell viability by 50%
smiles,measurement,setting,value
"COc1cccc(OCCCN)c1-c1cc(Nc2cnc(C#N)cn2)n[nH]1 [prexasertib, 5-(5-(2-(3-aminopropoxy)-6-methoxyphenyl)-1H-pyrazol-3-ylamino)pyrazine-2-carbonitrile]",overall unenriched response rate,[1]; all patients of the FFPE cohort,25%
same,Clinical RECIST responder rate (PR or CR),[1]; among those predicted by the Response-Predictive Signature to be non-responders,5%
same,Clinical RECIST responder rate (PR or CR),[1]; among those predicted by the Response-Predictive Signature to be responders,58%
same,Best Tumor Shrinkage (fraction from baseline),[1]; [4],0.048 and 0.159 and −0.037 and −0.118 (2×) and 0.353 and −0.024 and −0.077 and 0 (2×) and 0.342 and 0.105 and −0.192 and 0.146 and −0.012 and 0.015 and 0.24 and 0.1 and 0.04 and 0.01
same,RECIST response category,[1]; [4],SD (16×) and PD (3×) and PR
same,RECIST Responder,[1]; [4],FALSE (19×) and TRUE
same,Best Tumor Shrinkage (fraction from baseline),[1]; [5],0.146 and 0 and 0.441 and 0.52 and 0.584 and −0.287 and 0.038 and 0.492 and 0.59 and 0.35 and 0.14 and 0.444
same,RECIST response category,[1]; [5],SD (4×) and PR (7×) and PD
same,RECIST Responder,[1]; [5],FALSE (5×) and TRUE (7×)
same,ORR in trials,SCLC; platinum resistant,0% (platinum
same,ORR in trials,SCLC; platinum sensitive,5% (platinum
same,Actual response status,A2780 [2]; [6],NR (values of greater than 1 μM were considered to be actual non-responders)
same,EC50,A2780 [2]; [7],> 10 µM
same,EC50,Kuramochi; [7],24 nM
same,Actual response status,Kuramochi; [6],R (EC50 values of less than or equal to 1 μM were considered to be actual responders)
same,EC50,U1752; [7],> 10 µM
same,Actual response status,U1752; [6],NR (values of greater than 1 μM were considered to be actual non-responders)
same,EC50,MCF7; [7],> 10 µM
same,Actual response status,MCF7; [6],NR (values of greater than 1 μM were considered to be actual non-responders)
same,EC50,T47D; [7],> 10 µM
same,Actual response status,T47D; [6],NR (values of greater than 1 μM were considered to be actual non-responders)
same,Actual response status,CAOV3; [6],R (EC50 values of less than or equal to 1 μM were considered to be actual responders)
same,EC50,"CAOV3; Homo sapiens, Caov-3, reduction in cell viability by 50%",17 nM
same,Actual response status,DU145; [6],NR (values of greater than 1 μM were considered to be actual non-responders)
same,EC50,"DU145; Homo sapiens, DU-145, reduction in cell viability by 50%",> 10 µM
same,EC50,U2020; [7],7 nM
same,Actual response status,U2020; [6],R (EC50 values of less than or equal to 1 μM were considered to be actual responders)
same,Actual response status,A549; [6],NR (values of greater than 1 μM were considered to be actual non-responders)
same,EC50,A549; [7],> 10 µM
same,EC50,"PC3; Homo sapiens, PC-3, reduction in cell viability by 50%",> 10 µM
same,Actual response status,PC3; [6],NR (values of greater than 1 μM were considered to be actual non-responders)
same,EC50,PANC1,> 10 µM
same,ORR in trials,"Anal, SCC",15%
same,IC50,A2780 [3],> 10 µM
same,IC50,HeLa,15 nM
same,IC50,A375,1.8 nM
same,ORR in trials,"Ovarian, primary HGS",19% (trial 2^)
same,ORR in trials,"Ovarian, metastases; Ovarian, metastases, trial 1, NCI phase II trial",32% (trial 1*)
same,response rate,"Ovarian, metastases; single center, phase 2 study in ovarian cancer at NCI, single agent",29%
